According to publication PMC9019572, “Design, Synthesis, and Biological Evaluation of [1,2,4]triazolo[4,3-a] Pyrazine Derivatives as Novel Dual c-Met/VEGFR-2 Inhibitors” (Frontiers in Chemistry, 2022):
Where two headings read alike, the source gives them in different places.

Columns and labels:
A549 cells = experiment: MTT antiproliferative assay, A549; type: cell-based; conditions: Homo sapiens, 72 h;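 note: formazan read-out dissolved in DMSO, each compound assayed three times, IC50 computed with Bliss software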
Protocol: The cell lines used in the experiment were available from the Cell Culture Collection of Chinese Academy of Sciences (Shanghai Institutes for Biological Sciences, Chinese Academy of Sciences). […] The formazan crystals were dissolved in 100 µl of DMSO in each well. […] All compounds were tested three times in each of the cell lines. The results, expressed as inhibition rates or IC50 (half-maximal inhibitory concentration), were the averages of two determinations and calculated by using the Bacus Laboratories Incorporated Slide Scanner (Bliss) software.

c-Met kinase = c-Met kinase (Homo sapiens, UniProt P08581); experiment: c-Met kinase inhibition assay; type: biochemical
Protocol: The kinase assay was performed by Pratzer Biotechnology Co. Ltd. (Changsha, China).

MCF-7 cells = experiment: MTT antiproliferative assay, MCF-7; type: cell-based; conditions: Homo sapiens, read-out: IC50 MCF-7
Protocol: (§1) The cell lines used in the experiment were available from the Cell Culture Collection of Chinese Academy of Sciences (Shanghai Institutes for Biological Sciences, Chinese Academy of Sciences). Referring to the previous experimental methods of our research, all cells were cultured in suitable medium such as DMEM or RPMI-1640 containing 10% fetal bovine serum at 37°C in 5% CO2 and propagated for 24 h. Then the compounds with different gradient concentrations were added into the medium and incubated for 72 h, and then MTT (thiazolyl blue tetrazolium bromide) with a concentration of 5 µg/ml was added to every well for 4 h at 37°C. The formazan crystals were dissolved in 100 µl of DMSO in each well. The absorbancy at 492 nm (for absorbance of MTT formazan) and 630 nm (for the reference wavelength) was measured with an ELISA reader. All compounds were tested three times in each of the cell lines. The results, expressed as inhibition rates or IC50 (half-maximal inhibitory concentration), were the averages of two determinations and calculated by using the Bacus Laboratories Incorporated Slide Scanner (Bliss) software.

Hela cells = experiment: MTT antiproliferative assay, Hela; type: cell-based; conditions: Homo sapiens, 72 h, read-out: IC50 Hela
Protocol: as §1

H460 cells = experiment: Antiproliferative activity, H460; type: cell-based; conditions: Homo sapiens, NCI-H460
Protocol: as §1

H1975 cells = experiment: Antiproliferative activity, H1975; type: cell-based; conditions: Homo sapiens, NCI-H1975
Protocol: as §1

PC-9 cells = experiment: Antiproliferative activity, PC-9; type: cell-based; conditions: Homo sapiens
Protocol: as §1

c-Met kinase, sequence (P08581 25-1390): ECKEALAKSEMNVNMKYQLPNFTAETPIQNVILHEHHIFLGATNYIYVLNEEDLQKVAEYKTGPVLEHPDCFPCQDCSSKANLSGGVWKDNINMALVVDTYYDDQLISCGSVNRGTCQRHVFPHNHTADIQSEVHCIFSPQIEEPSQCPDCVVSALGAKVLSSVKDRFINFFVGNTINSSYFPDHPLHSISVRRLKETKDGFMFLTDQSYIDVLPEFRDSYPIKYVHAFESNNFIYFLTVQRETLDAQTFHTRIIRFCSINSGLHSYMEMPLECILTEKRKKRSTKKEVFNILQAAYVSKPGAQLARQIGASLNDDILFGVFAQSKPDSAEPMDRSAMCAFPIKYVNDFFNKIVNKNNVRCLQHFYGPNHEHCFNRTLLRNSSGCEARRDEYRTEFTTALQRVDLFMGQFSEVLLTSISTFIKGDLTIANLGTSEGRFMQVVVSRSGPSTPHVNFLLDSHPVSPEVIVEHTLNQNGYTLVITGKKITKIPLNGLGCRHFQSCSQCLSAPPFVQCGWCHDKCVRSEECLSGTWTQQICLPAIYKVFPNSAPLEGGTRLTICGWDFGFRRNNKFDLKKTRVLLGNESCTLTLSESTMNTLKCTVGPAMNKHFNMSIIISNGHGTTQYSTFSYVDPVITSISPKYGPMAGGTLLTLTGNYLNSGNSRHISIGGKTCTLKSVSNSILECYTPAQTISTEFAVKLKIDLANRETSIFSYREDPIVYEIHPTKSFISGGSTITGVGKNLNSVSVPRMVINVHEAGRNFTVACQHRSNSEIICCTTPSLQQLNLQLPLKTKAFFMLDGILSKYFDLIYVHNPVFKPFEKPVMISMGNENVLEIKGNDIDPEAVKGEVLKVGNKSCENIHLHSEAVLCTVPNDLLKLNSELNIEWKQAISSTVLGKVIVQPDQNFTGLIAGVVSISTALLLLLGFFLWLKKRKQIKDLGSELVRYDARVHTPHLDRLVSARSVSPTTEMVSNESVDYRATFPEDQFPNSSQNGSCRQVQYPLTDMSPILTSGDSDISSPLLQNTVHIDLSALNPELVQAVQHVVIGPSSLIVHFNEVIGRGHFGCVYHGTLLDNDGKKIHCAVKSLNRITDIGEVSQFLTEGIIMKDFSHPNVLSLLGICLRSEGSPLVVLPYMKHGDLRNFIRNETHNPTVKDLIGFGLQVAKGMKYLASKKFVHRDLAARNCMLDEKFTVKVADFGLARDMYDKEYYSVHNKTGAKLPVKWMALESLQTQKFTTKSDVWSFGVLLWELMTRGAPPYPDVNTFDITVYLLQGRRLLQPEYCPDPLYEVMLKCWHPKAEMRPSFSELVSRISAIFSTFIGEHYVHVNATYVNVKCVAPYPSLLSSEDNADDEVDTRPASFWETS

Row | Structure (SMILES) | IC50 (A549 cells) | IC50 (c-Met kinase) | melting point | IC50 (MCF-7 cells; MCF7, MTT, 72 h, MCF-7 cells) | IC50 (Hela cells; MTT, Hela cells) | IC50 (H460 cells) | IC50 (H1975 cells) | IC50 (PC-9 cells) | IC50 (MCF-7 cells; MCF7, 72 h) | IC50 (Hela cells; HeLa)
1 | Cc1nc(-c2ccccc2)sc1C(=O)Nc1ccc(Oc2nccn3cnnc23)c(F)c1 [16 g] | 8.21 ± 0.65 µM | 0.658 µM | 278.1 to 282.7 °C | 9.17 ± 1.03 µM | 17.7 ± 1.29 µM |  |  |  |  | 
2 | Cc1nc(-c2ccccn2)sc1C(=O)Nc1ccc(Oc2nccn3cnnc23)c(F)c1 [16 h] | 6.56 ± 0.42 µM | 0.437 µM | 203.4 to 207.6 °C | 8.18 ± 1.12 µM | 13.9 ± 1.59 µM |  |  |  |  | 
3 | O=C(Nc1ccc(Oc2nccn3cnnc23)c(F)c1)c1cnn(-c2ccc(Cl)cc2)c1C(F)(F)F [16 k] | 6.18 ± 0.34 µM | 0.38 µM |  | 6.51 ± 0.63 µM | 12.9 ± 1.06 µM |  |  |  |  | 
4 | Cc1nc(-c2ccccc2)sc1C(=O)Nc1ccc(Oc2nccn3cnnc23)cc1 [16a] | 12.4 ± 0.97 µM | 0.794 µM | 265.8 to 268.1 °C | 13.8 ± 1.23 µM | 21.5 ± 1.78 µM |  |  |  |  | 
5 | Cc1nc(-c2ccccn2)sc1C(=O)Nc1ccc(Oc2nccn3cnnc23)cc1 [16b] | 6.46 ± 0.33 µM | 0.379 µM |  | 7.87 ± 0.42 µM | 12.2 ± 1.08 µM |  |  |  |  | 
6 | Cc1nc(-c2ccncc2)sc1C(=O)Nc1ccc(Oc2nccn3cnnc23)cc1 [16c] | 5.58 ± 0.75 µM | 0.345 µM | 235.6 to 237.5 °C | 6.45 ± 0.81 µM | 14.3 ± 1.15 µM |  |  |  |  | 
7 | O=C(Nc1ccc(Oc2nccn3cnnc23)cc1)c1cnn(-c2ccc(Cl)cc2)c1C(F)(F)F [16d] | 12.3 ± 0.98 µM | 0.722 µM | 261.3 to 263.5 °C | 11.5 ± 1.06 µM | 19.5 ± 1.94 µM |  |  |  |  | 
8 | O=C(Nc1ccc(Oc2nccn3cnnc23)cc1)c1cc(-c2cccs2)n[nH]1 [16e] | 5.44 ± 0.42 µM | 0.342 µM |  | 7.13 ± 0.63 µM | 11.2 ± 0.96 µM |  |  |  |  | 
9 | O=C(Nc1ccc(Oc2nccn3cnnc23)cc1)c1cc(-c2cccs2)no1 [16f] | 27.3 ± 0.86 µM | > 1 µM | 291.5 to 293.1 °C | > 50 µM | > 50 µM |  |  |  |  | 
10 | Cc1nc(-c2cccnc2)sc1C(=O)Nc1ccc(Oc2nccn3cnnc23)c(F)c1 [16i] | 17.4 ± 0.97 µM |  |  | 19 ± 1.32 µM | 25 ± 2.17 µM |  |  |  |  | 
11 | Cc1nc(-c2ccncc2)sc1C(=O)Nc1ccc(Oc2nccn3cnnc23)c(F)c1 [16j] | 3.26 ± 0.67 µM | 0.11 µM | 226.9 to 229.1 °C | 3.68 ± 0.34 µM | 6.17 ± 0.58 µM |  |  |  |  | 
12 | O=C(Nc1ccc(Oc2nccn3cnnc23)c(F)c1)c1cc(-c2cccs2)no1 [16l] | 11.4 ± 0.76 µM | 0.725 µM |  | 12 ± 1.24 µM | 23.3 ± 2.12 µM |  |  |  |  | 
13 | Cc1nc(-c2ccccc2)sc1C(=O)Nc1ccc(Oc2nccn3c(C)nnc23)c(F)c1 [17 g] |  |  | 299 to 302.1 °C |  |  |  |  |  |  | 
14 | Cc1nc(-c2ccccn2)sc1C(=O)Nc1ccc(Oc2nccn3c(C)nnc23)c(F)c1 [17 h] | 3.56 ± 0.32 µM | 0.156 µM |  | 4.25 ± 0.76 µM | 7.43 ± 0.38 µM |  |  |  |  | 
15 | Cc1nc(-c2ccc(F)cc2)sc1C(=O)Nc1ccc(Oc2nccn3c(C)nnc23)c(F)c1 [17 k] | 15.3 ± 0.51 µM |  |  | 18.2 ± 1.28 µM | 25.3 ± 2.4 µM |  |  |  |  | 
16 | Cc1nnc2c(Oc3ccc(NC(=O)c4cc(-c5cccs5)no4)cc3F)nccn12 [17 m] | 8.84 ± 0.97 µM | 0.653 µM |  | 9.34 ± 1.03 µM | 17.4 ± 1.56 µM |  |  |  |  | 
17 | COc1cc2c(Oc3ccc(NC(=O)C4(C(=O)Nc5ccc(F)cc5)CC4)cc3F)ccnc2cc1OCCCN1CCOCC1 [Foretinib, foretinib, reference compound] |  |  |  |  |  |  |  |  | 0.93 ± 0.09 µM | 1.18 ± 0.25 µM
18 | CNC(=O)c1cc(Oc2ccc(NC(=O)Nc3ccc(Cl)c(C(F)(F)F)c3)cc2)ccn1 [Sorafenib, sorafenib, reference compound] |  |  |  |  |  | 5.27 ± 0.72 µM | 10.2 ± 1 µM | 5.41 ± 0.73 µM |  | 

The next lines start with results.

Row | IC50 (A549 cells) | IC50 (c-Met kinase) | melting point | IC50 (MCF-7 cells; MCF7, MTT, 72 h, MCF-7 cells) | IC50 (Hela cells; MTT, Hela cells) | IC50 (H460 cells) | IC50 (H1975 cells) | IC50 (PC-9 cells) | Structure (SMILES) | IC50 (MCF-7 cells; MCF7, 72 h) | IC50 (Hela cells; HeLa)
19 | 1.23 ± 0.13 µM | 0.055 µM |  | 1.43 ± 0.21 µM | 2.31 ± 0.29 µM |  |  |  | Cc1nc(-c2ccccc2)sc1C(=O)Nc1ccc(Oc2nccn3c(C)nnc23)cc1 [17a] |  | 
20 | 4.31 ± 0.49 µM | 0.245 µM |  | 5.15 ± 0.72 µM | 9.46 ± 0.58 µM |  |  |  | Cc1nc(-c2ccccn2)sc1C(=O)Nc1ccc(Oc2nccn3c(C)nnc23)cc1 [17b] |  | 
21 | 7.68 ± 0.71 µM | 0.532 µM | 270.7 to 273.8 °C | 8.79 ± 0.89 µM | 15.9 ± 1.1 µM |  |  |  | Cc1nc(-c2ccncc2)sc1C(=O)Nc1ccc(Oc2nccn3c(C)nnc23)cc1 [17c] |  | 
22 | 5.21 ± 0.37 µM | 0.289 µM |  | 6.95 ± 0.67 µM | 10.7 ± 1.42 µM |  |  |  | Cc1nc(-c2ccc(F)cc2)sc1C(=O)Nc1ccc(Oc2nccn3c(C)nnc23)cc1 [17d] |  | 
23 | 2.05 ± 0.19 µM | 0.077 µM |  | 1.74 ± 0.22 µM | 4.78 ± 0.43 µM |  |  |  | Cc1nnc2c(Oc3ccc(NC(=O)c4cnn(-c5ccc(Cl)cc5)c4C(F)(F)F)cc3)nccn12 [17e] |  | 
24 | 5.73 ± 0.54 µM | 0.3 µM | 275.6 to 278.1 °C | 6.38 ± 0.85 µM | 12.4 ± 1.53 µM |  |  |  | Cc1nnc2c(Oc3ccc(NC(=O)c4cc(-c5cccs5)n[nH]4)cc3)nccn12 [17f] |  | 
25 | 188 µM |  | 220.7 to 223.1 °C | 25.4 ± 1.54 µM | > 50 µM |  |  |  | Cc1nc(-c2cccnc2)sc1C(=O)Nc1ccc(Oc2nccn3c(C)nnc23)c(F)c1 [17i] |  | 
26 | 7.16 ± 0.45 µM | 0.45 µM |  | 7.31 ± 0.77 µM | 14.2 ± 1.64 µM |  |  |  | Cc1nc(-c2ccncc2)sc1C(=O)Nc1ccc(Oc2nccn3c(C)nnc23)c(F)c1 [17j] |  | 
